Results: ChEMBL document CHEMBL1201862, “PubChem BioAssay data set” (2004)
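Following 48 hours of exposure in 96-well plates, responses at five concentrations were used to interpolate endpoints linearly. At the GI50, growth is halved.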 Activity calls are given as the source filed them. Rule as the data show it: active = GI50 up to about 1.1 µM and inactive = higher.

How the values were obtained:
Assay in all cases: NCI-60 cell line screen, 48 h
[1] = system: SW-620
[2] = system: HCC 2998
[3] = system: NCI/ADR-RES
[4] = system: KM12
[5] = system: MDA-N
[6] = system: NCI-H522
[7] = system: SN12C
[8] = system: 786-0
[9] = system: BT-549
[10] = system: HT-29
[11] = system: SNB-75
[12] = system: HOP-62
[13] = system: EKVX
[14] = system: OVCAR-5
[15] = system: COLO 205
[16] = system: MCF7
[17] = system: NCI-H460
[18] = system: OVCAR-8
[19] = system: CCRF-CEM
[20] = system: OVCAR-3

Compound	GI50 [1]	GI50 [2]	GI50 [3]	GI50 [4]	GI50 [5]	GI50 [6]	GI50 [7]	GI50 [8]	GI50 [9]	GI50 [10]	GI50 [11]	GI50 [12]	GI50 [13]	GI50 [14]	GI50 [15]	GI50 [16]	GI50 [17]	GI50 [18]	GI50 [19]	GI50 [20]
CN(C)CCn1nc(N)c2nc3cc(C(F)(F)F)ccc3nc21	81.1 µM (inactive)	75.9 µM (inactive)	> 100 µM (inactive)	> 100 µM (inactive)	> 100 µM (inactive)	42 µM (inactive)	> 100 µM (inactive)	> 100 µM (inactive)	99.8 µM (inactive)	> 100 µM (inactive)	15.5 µM (inactive)	57.4 µM (inactive)	> 100 µM (inactive)	> 100 µM (inactive)	27.7 µM (inactive)	> 100 µM (inactive)	51.4 µM (inactive)	88.3 µM (inactive)	79.3 µM (inactive)	–
COc1ccc(-n2c3c(c4c(CN(C)C)c(O)ccc42)C(=O)c2ccccc2C3=O)cc1	2.07 µM (inactive)	2.77 µM (inactive)	5.73 µM (inactive)	3.2 µM (inactive)	4.62 µM (inactive)	12.3 µM (inactive)	2.82 µM (inactive)	1.89 µM (inactive)	13.6 µM (inactive)	2.19 µM (inactive)	–	2.02 µM (inactive)	7.76 µM (inactive)	4.92 µM (inactive)	8.09 µM (inactive)	7.18 µM (inactive)	4.24 µM (inactive)	3.26 µM (inactive)	2.99 µM (inactive)	13.5 µM (inactive)
Nc1ccc(Oc2ccc(C34CC5CC6C3CC3CC4C(C5)C6(c4ccc(Oc5ccc(N)c(O)c5)cc4)C3)cc2)cc1O	4.25 µM (inactive)	1.87 µM (inactive)	3.1 µM (inactive)	3.69 µM (inactive)	3.22 µM (inactive)	1.61 µM (inactive)	1.72 µM (inactive)	3.15 µM (inactive)	1.15 µM (inactive)	3.59 µM (inactive)	–	4.78 µM (inactive)	1.79 µM (inactive)	2 µM (inactive)	1.31 µM (inactive)	4.55 µM (inactive)	3.56 µM (inactive)	0.67 µM (active)	3.33 µM (inactive)	1.47 µM (inactive)
CSC(SC)=C1C(=O)N(c2ccccc2)N=C1C	32 µM (inactive)	46.6 µM (inactive)	31.2 µM (inactive)	41.1 µM (inactive)	34.8 µM (inactive)	17.5 µM (inactive)	30.7 µM (inactive)	23.2 µM (inactive)	21.6 µM (inactive)	35.8 µM (inactive)	21.2 µM (inactive)	35.4 µM (inactive)	24 µM (inactive)	29.5 µM (inactive)	19.9 µM (inactive)	17.3 µM (inactive)	23.9 µM (inactive)	33.8 µM (inactive)	18.5 µM (inactive)	–
CCOP(=O)(OCC)C(C)(C)OC(=O)NC#N	> 100 µM (inactive)	> 100 µM (inactive)	> 100 µM (inactive)	> 100 µM (inactive)	> 100 µM (inactive)	–	> 100 µM (inactive)	> 100 µM (inactive)	79.6 µM (inactive)	> 100 µM (inactive)	> 100 µM (inactive)	> 100 µM (inactive)	> 100 µM (inactive)	> 100 µM (inactive)	> 100 µM (inactive)	> 100 µM (inactive)	> 100 µM (inactive)	> 100 µM (inactive)	> 100 µM (inactive)	> 100 µM (inactive)
Oc1c(Cl)cc(CN(Cc2cc(Cl)c(O)c(Cl)c2)C2CCCCC2)cc1Cl	> 100 µM (inactive)	–	> 100 µM (inactive)	> 100 µM (inactive)	> 100 µM (inactive)	> 100 µM (inactive)	> 100 µM (inactive)	> 100 µM (inactive)	> 100 µM (inactive)	> 100 µM (inactive)	> 100 µM (inactive)	> 100 µM (inactive)	> 100 µM (inactive)	> 100 µM (inactive)	> 100 µM (inactive)	> 100 µM (inactive)	> 100 µM (inactive)	> 100 µM (inactive)	< 0.01 µM (active)	> 100 µM (inactive)
CC(C)=C[C@H]1C[C@H](C)[C@H]2CC[C@H](C)c3c2c1c(C)c1ncoc31	15.3 µM (inactive)	20 µM (inactive)	17 µM (inactive)	17.7 µM (inactive)	17.5 µM (inactive)	16 µM (inactive)	19.5 µM (inactive)	18.5 µM (inactive)	21.1 µM (inactive)	–	18.8 µM (inactive)	–	15.9 µM (inactive)	16 µM (inactive)	16.7 µM (inactive)	15 µM (inactive)	18.4 µM (inactive)	19.2 µM (inactive)	17.7 µM (inactive)	15.1 µM (inactive)
C1CCN(CCC2CCCCN2)CC1 (stereo unspecified)	> 100 µM (inactive)	–	> 100 µM (inactive)	> 100 µM (inactive)	> 100 µM (inactive)	> 100 µM (inactive)	> 100 µM (inactive)	> 100 µM (inactive)	> 100 µM (inactive)	> 100 µM (inactive)	> 100 µM (inactive)	> 100 µM (inactive)	> 100 µM (inactive)	> 100 µM (inactive)	> 100 µM (inactive)	> 100 µM (inactive)	55 µM (inactive)	> 100 µM (inactive)	> 100 µM (inactive)	> 100 µM (inactive)
CN(CCc1ccc(N)cc1)[C@H]1CCCC[C@H]1N1CCCC1	> 100 µM (inactive)	51.9 µM (inactive)	> 100 µM (inactive)	> 100 µM (inactive)	> 100 µM (inactive)	> 100 µM (inactive)	> 100 µM (inactive)	> 100 µM (inactive)	> 100 µM (inactive)	78.2 µM (inactive)	> 100 µM (inactive)	> 100 µM (inactive)	> 100 µM (inactive)	> 100 µM (inactive)	> 100 µM (inactive)	> 100 µM (inactive)	> 100 µM (inactive)	> 100 µM (inactive)	–	> 100 µM (inactive)
CC1(C)C2CC1C(/C=N\OCC(=O)O)=CC2=O (stereo unspecified)	> 100 µM (inactive)	> 100 µM (inactive)	> 100 µM (inactive)	> 100 µM (inactive)	> 100 µM (inactive)	–	> 100 µM (inactive)	> 100 µM (inactive)	> 100 µM (inactive)	> 100 µM (inactive)	–	> 100 µM (inactive)	> 100 µM (inactive)	> 100 µM (inactive)	> 100 µM (inactive)	> 100 µM (inactive)	> 100 µM (inactive)	> 100 µM (inactive)	> 100 µM (inactive)	> 100 µM (inactive)
CCn1c2ccc(O)c(C(=O)OC)c2c2cc3ccccc3c(O)c21	–	22.2 µM (inactive)	19.8 µM (inactive)	15.3 µM (inactive)	20.5 µM (inactive)	18.3 µM (inactive)	18.5 µM (inactive)	12.3 µM (inactive)	15.2 µM (inactive)	18.5 µM (inactive)	–	20.2 µM (inactive)	35 µM (inactive)	32.3 µM (inactive)	15.3 µM (inactive)	22.5 µM (inactive)	14.2 µM (inactive)	17.4 µM (inactive)	19 µM (inactive)	14.5 µM (inactive)
CC(=O)c1c2n(n(-c3ccccc3)c1=O)C(=O)c1nccnc1-2	> 100 µM (inactive)	> 100 µM (inactive)	> 100 µM (inactive)	> 100 µM (inactive)	> 100 µM (inactive)	> 100 µM (inactive)	> 100 µM (inactive)	> 100 µM (inactive)	> 100 µM (inactive)	> 100 µM (inactive)	54.1 µM (inactive)	–	> 100 µM (inactive)	> 100 µM (inactive)	> 100 µM (inactive)	> 100 µM (inactive)	> 100 µM (inactive)	> 100 µM (inactive)	–	> 100 µM (inactive)
CC1(C)CC23CC(C)(C)c4cccc(c42)OCc2ccc4ccc5ccc(nc5c4n2)COc2cccc1c23	> 50 µM (inactive)	> 50 µM (inactive)	> 50 µM (inactive)	> 50 µM (inactive)	> 50 µM (inactive)	> 50 µM (inactive)	> 50 µM (inactive)	> 50 µM (inactive)	> 50 µM (inactive)	> 50 µM (inactive)	> 50 µM (inactive)	> 50 µM (inactive)	> 50 µM (inactive)	> 50 µM (inactive)	> 50 µM (inactive)	> 50 µM (inactive)	> 50 µM (inactive)	> 50 µM (inactive)	–	> 50 µM (inactive)
CNC(=O)C(NC(=O)[C@H](CC(C)C)NC(=O)[C@@H](S)CCN1C(=O)N(C)C(C)(C)C1=O)C(C)(C)C (stereo partly specified)	> 100 µM (inactive)	> 100 µM (inactive)	> 100 µM (inactive)	> 100 µM (inactive)	> 100 µM (inactive)	> 100 µM (inactive)	> 100 µM (inactive)	> 100 µM (inactive)	> 100 µM (inactive)	> 100 µM (inactive)	–	> 100 µM (inactive)	> 100 µM (inactive)	> 100 µM (inactive)	–	> 100 µM (inactive)	> 100 µM (inactive)	> 100 µM (inactive)	–	–
COc1ccc(/N=C2\C(=N/c3ccc(OC)cc3)N(S(=O)(=O)c3ccccc3)C(=S)N2c2ccc(OC)cc2)cc1	> 100 µM (inactive)	> 100 µM (inactive)	> 100 µM (inactive)	> 100 µM (inactive)	> 100 µM (inactive)	> 100 µM (inactive)	> 100 µM (inactive)	> 100 µM (inactive)	> 100 µM (inactive)	–	4.88 µM (inactive)	> 100 µM (inactive)	> 100 µM (inactive)	> 100 µM (inactive)	> 100 µM (inactive)	> 100 µM (inactive)	–	> 100 µM (inactive)	–	> 100 µM (inactive)
